Assay [1] has as its target T1, HiBit-BRM fusion protein (Homo sapiens, UniProt P51531).
T1 construct: expressed in transfected cells
The assay can be described thus: HiBiT-BRM cell-based degradation assay (Nano-Glo HiBiT Lytic Detection, 24 h). The settings on record: HeLa cell line expressing HiBiT-BRM; for DC50: read-out: BRM HiBit Degradation IC50. The method, boiled down: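 HeLa cells stably expressing HiBiT-BRM were dosed with compounds (10-point 3-fold dilutions, 30 μM final top dose, duplicate) for 24 h. HiBiT signal was read by lytic LgBiT complementation luminescence. Percent degradation was normalised to DMSO (high control) and 2 μM of a reference BRM/BRG1 degrader (low control).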
(In general: With HiBiT, luminescence reflects the tagged protein that the partner subunit can reach.)

For assay [2], the target named is T2, HiBit-BRG1 fusion protein (Homo sapiens, UniProt P51532).
T2 construct: expressed in transfected cells
The assay can be described thus: HiBiT-BRG1 cell-based degradation assay (Nano-Glo HiBiT Lytic Detection, 24 h). Conditions: HeLa cell line expressing HiBit-BRG1 and LgBit; for Dmax: read-out: BRG1 HiBit Degradation Maximum (%); for DC50: read-out: BRMG1 HiBit Degradation IC50. The method, boiled down: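 Stable HeLa line co-expressing HiBit-BRG1 and LgBit, 5000 cells/well, treated 24 h in a tissue culture incubator. Lysed with Nano-Glo HiBiT lytic reagent, luminescence read. % degradation normalized to DMSO (high control) and 2 μM reference BRM/BRG1 degrader (low control).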

T2 sequence (P51532 whole entry, the tested form may be a part): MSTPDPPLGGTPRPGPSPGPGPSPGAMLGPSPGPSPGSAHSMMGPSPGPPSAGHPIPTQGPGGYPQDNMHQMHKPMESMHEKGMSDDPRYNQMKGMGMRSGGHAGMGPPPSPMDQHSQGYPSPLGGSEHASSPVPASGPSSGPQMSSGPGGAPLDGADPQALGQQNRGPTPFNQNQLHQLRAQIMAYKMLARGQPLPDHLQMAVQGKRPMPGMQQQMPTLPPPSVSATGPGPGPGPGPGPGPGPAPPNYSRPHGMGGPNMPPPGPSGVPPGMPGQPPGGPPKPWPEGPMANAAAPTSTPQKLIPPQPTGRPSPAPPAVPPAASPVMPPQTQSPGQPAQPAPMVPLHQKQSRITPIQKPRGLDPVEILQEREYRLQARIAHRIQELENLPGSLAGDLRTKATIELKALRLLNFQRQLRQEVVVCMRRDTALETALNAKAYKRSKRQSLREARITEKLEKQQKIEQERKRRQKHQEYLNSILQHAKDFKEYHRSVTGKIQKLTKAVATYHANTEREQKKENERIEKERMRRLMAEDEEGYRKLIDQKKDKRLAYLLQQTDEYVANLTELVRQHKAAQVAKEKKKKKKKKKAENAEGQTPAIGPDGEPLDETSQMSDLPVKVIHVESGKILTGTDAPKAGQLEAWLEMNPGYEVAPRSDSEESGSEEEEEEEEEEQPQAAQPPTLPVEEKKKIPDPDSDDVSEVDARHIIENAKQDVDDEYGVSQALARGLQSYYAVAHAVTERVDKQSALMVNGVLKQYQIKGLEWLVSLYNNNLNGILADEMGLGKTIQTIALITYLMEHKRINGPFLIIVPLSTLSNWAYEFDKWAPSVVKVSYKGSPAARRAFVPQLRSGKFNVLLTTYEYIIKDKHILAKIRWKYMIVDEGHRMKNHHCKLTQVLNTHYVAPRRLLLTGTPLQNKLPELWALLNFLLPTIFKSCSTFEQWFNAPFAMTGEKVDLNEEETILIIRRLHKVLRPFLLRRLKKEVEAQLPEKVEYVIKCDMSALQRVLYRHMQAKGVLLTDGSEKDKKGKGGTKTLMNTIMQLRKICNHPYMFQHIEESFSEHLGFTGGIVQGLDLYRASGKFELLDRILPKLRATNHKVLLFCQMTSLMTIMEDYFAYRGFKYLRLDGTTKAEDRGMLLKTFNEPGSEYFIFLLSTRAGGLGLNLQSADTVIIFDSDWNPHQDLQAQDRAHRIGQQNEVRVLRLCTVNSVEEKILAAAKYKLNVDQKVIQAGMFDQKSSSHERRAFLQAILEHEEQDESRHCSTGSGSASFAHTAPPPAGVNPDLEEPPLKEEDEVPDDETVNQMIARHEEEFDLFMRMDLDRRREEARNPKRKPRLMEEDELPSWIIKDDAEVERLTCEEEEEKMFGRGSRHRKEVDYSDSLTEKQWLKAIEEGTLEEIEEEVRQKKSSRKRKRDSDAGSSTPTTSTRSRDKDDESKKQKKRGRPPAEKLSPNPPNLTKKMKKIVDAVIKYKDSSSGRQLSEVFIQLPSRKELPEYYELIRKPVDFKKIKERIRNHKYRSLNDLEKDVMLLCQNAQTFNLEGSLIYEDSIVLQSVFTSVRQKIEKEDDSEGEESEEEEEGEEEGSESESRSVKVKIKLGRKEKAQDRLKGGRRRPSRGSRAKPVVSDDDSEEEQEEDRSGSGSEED
T1 sequence (P51531 whole entry, the tested form may be a part): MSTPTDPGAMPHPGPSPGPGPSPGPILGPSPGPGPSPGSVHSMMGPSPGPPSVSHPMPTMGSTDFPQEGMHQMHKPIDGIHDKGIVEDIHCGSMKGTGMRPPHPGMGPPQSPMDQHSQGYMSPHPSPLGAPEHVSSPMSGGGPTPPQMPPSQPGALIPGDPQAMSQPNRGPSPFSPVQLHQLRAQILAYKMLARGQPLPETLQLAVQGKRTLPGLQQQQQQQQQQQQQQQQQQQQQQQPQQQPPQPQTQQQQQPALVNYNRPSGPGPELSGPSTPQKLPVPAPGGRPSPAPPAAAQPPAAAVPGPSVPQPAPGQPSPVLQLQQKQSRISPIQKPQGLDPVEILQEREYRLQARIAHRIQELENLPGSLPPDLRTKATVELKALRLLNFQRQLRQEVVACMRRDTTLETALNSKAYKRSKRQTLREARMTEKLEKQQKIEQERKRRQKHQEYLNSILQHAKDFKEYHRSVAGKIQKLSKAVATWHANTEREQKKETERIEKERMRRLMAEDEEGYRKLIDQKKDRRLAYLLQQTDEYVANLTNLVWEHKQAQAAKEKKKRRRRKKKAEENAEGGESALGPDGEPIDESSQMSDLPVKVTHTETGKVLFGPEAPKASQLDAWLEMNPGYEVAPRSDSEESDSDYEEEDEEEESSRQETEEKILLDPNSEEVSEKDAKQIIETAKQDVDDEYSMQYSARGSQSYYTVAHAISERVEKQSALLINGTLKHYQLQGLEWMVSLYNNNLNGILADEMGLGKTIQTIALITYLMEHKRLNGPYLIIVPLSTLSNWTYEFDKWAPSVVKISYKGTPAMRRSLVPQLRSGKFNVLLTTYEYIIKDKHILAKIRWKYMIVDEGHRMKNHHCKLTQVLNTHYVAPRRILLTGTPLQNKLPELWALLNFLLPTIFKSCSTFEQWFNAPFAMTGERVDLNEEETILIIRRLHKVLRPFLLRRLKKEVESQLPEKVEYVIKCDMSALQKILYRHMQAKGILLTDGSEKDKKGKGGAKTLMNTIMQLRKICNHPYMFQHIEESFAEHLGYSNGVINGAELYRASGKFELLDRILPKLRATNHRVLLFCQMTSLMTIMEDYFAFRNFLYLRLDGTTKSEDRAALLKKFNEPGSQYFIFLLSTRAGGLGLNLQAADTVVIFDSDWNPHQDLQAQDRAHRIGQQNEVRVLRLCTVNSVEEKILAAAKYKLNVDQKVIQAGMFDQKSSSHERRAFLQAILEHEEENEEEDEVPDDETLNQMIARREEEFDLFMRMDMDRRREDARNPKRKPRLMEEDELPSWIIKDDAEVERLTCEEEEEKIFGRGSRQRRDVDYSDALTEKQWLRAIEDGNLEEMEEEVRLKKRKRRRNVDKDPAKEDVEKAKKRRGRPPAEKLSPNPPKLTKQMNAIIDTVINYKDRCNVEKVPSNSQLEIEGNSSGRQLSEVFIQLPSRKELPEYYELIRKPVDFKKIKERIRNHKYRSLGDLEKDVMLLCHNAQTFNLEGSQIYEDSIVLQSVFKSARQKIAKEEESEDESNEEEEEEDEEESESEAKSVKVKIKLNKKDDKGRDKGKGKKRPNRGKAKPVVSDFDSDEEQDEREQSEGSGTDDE

With `Cc1ncsc1-c1ccc([C@H](C)NC(=O)[C@@H]2C[C@@H](O)CN2C(=O)[C@@H](c2cc(N3CCN(C(=O)C(=O)N4CC(c5c[nH]c6nnc(-c7ccccc7O)cc56)C4)CC3)no2)C(C)C)cc1` (racemic) [Compound 267, (2S,4R)-4-hydroxy-1-((R)-2-(3-(4-(2-(3-(3-(2-hydroxyphenyl)-7H-pyrrolo[2,3-c]pyridazin-5-yl)azetidin-1-yl)-2-oxoacetyl)piperazin-1-yl)isoxazol-5-yl)-3-methylbutanoyl)-N-((S)-1-(4-(4-methylthiazol-5-yl)phenyl)ethyl)pyrrolidine-2-carboxamide], in assay [1], the “BRM HiBit Degradation Maximum (%)” value is recorded as “A (“A” indicates maximum degradation ≥ 75%)” and the DC50 is over 0.1 µM. The Dmax in assay [2] was under 50%.
Regarding `Cc1ncsc1-c1ccc([C@H](C)NC(=O)[C@@H]2C[C@@H](O)CN2C(=O)[C@@H](c2cc(N3CCN(CC(=O)N4CC(c5cc6cc(-c7ccccc7O)nnc6[nH]5)C4)CC3)no2)C(C)C)cc1` (racemic) [Compound 263, (2S,4R)-4-hydroxy-1-((R)-2-(3-(4-(2-(3-(3-(2-hydroxyphenyl)-7H-pyrrolo[2,3-c]pyridazin-6-yl)azetidin-1-yl)-2-oxoethyl)piperazin-1-yl)isoxazol-5-yl)-3-methylbutanoyl)-N-((S)-1-(4-(4-methylthiazol-5-yl)phenyl)ethyl)pyrrolidine-2-carboxamide], in assay [1], the “BRM HiBit Degradation Maximum (%)” value is on record as “A (“A” indicates maximum degradation ≥ 75%)” and the DC50 was over 0.1 µM. In addition, in assay [2], the Dmax is over 75% and the DC50 was over 1 µM.
For the compound `Cc1ncsc1-c1ccc(CNC(=O)[C@@H]2C[C@@H](O)CN2C(=O)[C@@H](NC(=O)CCCCCCC(=O)N2CC(c3cc4cc(-c5ccccc5O)nnc4[nH]3)C2)C(C)(C)C)cc1` [Compound 3, (2S,4R)-4-hydroxy-1-((S)-2-(8-(3-(3-(2-hydroxyphenyl)-7H-pyrrolo[2,3-c]pyridazin-6-yl)azetidin-1-yl)-8-oxooctanamido)-3,3-dimethylbutanoyl)-N-(4-(4-methylthiazol-5-yl)benzyl)pyrrolidine-2-carboxamide], in assay [1], the “BRM HiBit Degradation Maximum (%)” value is on record as “B (“B” indicates maximum degradation ≥ 50%)” and the DC50 was over 1 µM. Besides, the Dmax in assay [2] is under 50%.
As to `Cc1ncsc1-c1ccc(CNC(=O)[C@@H]2C[C@@H](O)CN2C(=O)[C@@H](NC(=O)CCN2CC(c3cc4cc(-c5ccccc5O)nnc4[nH]3)C2)C(C)(C)C)cc1` [Compound 16, (2S,4R)-4-hydroxy-1-((S)-2-(3-(3-(3-(2-hydroxyphenyl)-7H-pyrrolo[2,3-c]pyridazin-6-yl)azetidin-1-yl)propanamido)-3,3-dimethylbutanoyl)-N-(4-(4-methylthiazol-5-yl)benzyl)pyrrolidine-2-carboxamide], the “BRM HiBit Degradation Maximum (%)” value in assay [1] is on record as “C (“C” indicates maximum degradation < 50%)”. Besides, the Dmax in assay [2] is under 50%.
For `Cc1ncsc1-c1ccc([C@H](C)NC(=O)[C@@H]2C[C@@H](O)CN2C(=O)[C@@H](c2cc(OCCN3CC(n4c(=O)[nH]c5nnc(-c6ccccc6O)cc54)C3)no2)C(C)C)cc1` (racemic) [Compound 206, (2S,4R)-4-hydroxy-1-[(2R)-2-[3-(2-{3-[3-(2-hydroxyphenyl)-6-oxo-7H-imidazo[4,5-c]pyridazin-5-yl]azetidin-1-yl}ethoxy)-1,2-oxazol-5-yl]-3-methylbutanoyl]-N-[(1S)-1-[4-(4-methyl-1,3-thiazol-5-yl)phenyl]ethyl]pyrrolidine-2-carboxamide] the same measures were “C (“C” indicates maximum degradation < 50%)” and under 50%.
`Cc1ncsc1-c1ccc([C@H](C)NC(=O)[C@@H]2C[C@@H](O)CN2C(=O)C(c2cc(C3CCN(C(=O)[C@H]4CCc5[nH]c6nnc(-c7ccccc7O)cc6c5C4)CC3)no2)C(C)C)cc1` (single isomer, unassigned) [Compound 147]: in assay [1], the “BRM HiBit Degradation Maximum (%)” value was “A (“A” indicates maximum degradation ≥ 75%)” and the DC50 is over 0.01 µM. Moreover, in assay [2], the Dmax is over 50% and the DC50 was over 0.1 µM.
Consider `Cc1ncsc1-c1ccc(CNC(=O)[C@@H]2C[C@@H](O)CN2C(=O)[C@@H](NC(=O)CCCCCCCCCCCCCCCCC(=O)N2CC(c3c[nH]c4nnc(-c5ccccc5O)cc34)C2)C(C)(C)C)cc1` [Compound 38, (2S,4R)-4-hydroxy-1-((S)-2-(18-(3-(3-(2-hydroxyphenyl)-7H-pyrrolo[2,3-c]pyridazin-5-yl)azetidin-1-yl)-18-oxooctadecanamido)-3,3-dimethylbutanoyl)-N-(4-(4-methylthiazol-5-yl)benzyl)pyrrolidine-2-carboxamide], for which, in assay [1], the “BRM HiBit Degradation Maximum (%)” value is given as “C (“C” indicates maximum degradation < 50%)”. Besides, the Dmax in assay [2] is under 50%.
Regarding `Cc1ncsc1-c1ccc([C@H](C)NC(=O)[C@@H]2C[C@@H](O)CN2C(=O)[C@@H](c2cc(N3CCN(C(=O)[C@H]4CCc5[nH]c6nnc(-c7ccccc7O)cc6c5C4)CC3)no2)C(C)C)cc1` (single isomer, unassigned) [Compound 188], in assay [1], the “BRM HiBit Degradation Maximum (%)” value is recorded as “A (“A” indicates maximum degradation ≥ 75%)” and the DC50 is over 0.1 µM. Besides, in assay [2], the Dmax is over 75% and the DC50 is over 0.1 µM.
`Cc1ncsc1-c1ccc([C@H](C)NC(=O)[C@@H]2C[C@@H](O)CN2C(=O)[C@@H](c2cc(OCCNC(=O)C(=O)N3CC(c4c[nH]c5nnc(-c6ccccc6O)cc45)C3)no2)C(C)C)cc1` (racemic) [Compound 250, (2S,4R)-4-hydroxy-1-((R)-2-(3-(2-(2-(3-(3-(2-hydroxyphenyl)-7H-pyrrolo[2,3-c]pyridazin-5-yl)azetidin-1-yl)-2-oxoacetamido)ethoxy)isoxazol-5-yl)-3-methylbutanoyl)-N-((S)-1-(4-(4-methylthiazol-5-yl)phenyl)ethyl)pyrrolidine-2-carboxamide]: in assay [1], the “BRM HiBit Degradation Maximum (%)” value is recorded as “A (“A” indicates maximum degradation ≥ 75%)” and the DC50 was over 0.1 µM. Further, in assay [2], the Dmax was under 50%.
With `Cc1ncsc1-c1ccc([C@H](C)NC(=O)[C@@H]2C[C@@H](O)CN2C(=O)[C@@H](c2cc(CN3CC(c4cc5cc(-c6ccccc6O)nnc5[nH]4)C3)no2)C(C)C)cc1` (single isomer, unassigned) [Compound 137], in assay [1], the “BRM HiBit Degradation Maximum (%)” value is “A (“A” indicates maximum degradation ≥ 75%)”. Besides, in assay [2], the Dmax is under 50%.
For `Cc1ncsc1-c1ccc(CNC(=O)[C@@H]2C[C@@H](O)CN2C(=O)[C@@H](NC(=O)CCCC(=O)N[C@@H]2CCc3[nH]c4nnc(-c5ccccc5O)cc4c3C2)C(C)(C)C)cc1` [Compound 180, N1-((S)-1-((2S,4R)-4-hydroxy-2-((4-(4-methylthiazol-5-yl)benzyl)carbamoyl)pyrrolidin-1-yl)-3,3-dimethyl-1-oxobutan-2-yl)-N5-((R)-3-(2-hydroxyphenyl)-6,7,8,9-tetrahydro-5H-pyridazino[3,4-b]indol-6-yl)glutaramide] the same measures were “C (“C” indicates maximum degradation < 50%)” and under 50%.
For `Cc1ncsc1-c1ccc(CNC(=O)[C@@H]2C[C@@H](O)CN2C(=O)[C@@H](NC(=O)CCCCCCCCCC(=O)N2CC(c3c[nH]c4nnc(-c5ccccc5O)cc34)C2)C(C)(C)C)cc1` [Compound 37, (2S,4R)-4-hydroxy-1-((S)-2-(11-(3-(3-(2-hydroxyphenyl)-7H-pyrrolo[2,3-c]pyridazin-5-yl)azetidin-1-yl)-11-oxoundecanamido)-3,3-dimethylbutanoyl)-N-(4-(4-methylthiazol-5-yl)benzyl)pyrrolidine-2-carboxamide], in that order: “C (“C” indicates maximum degradation < 50%)” and under 50%.
As to `Cc1ncsc1-c1ccc([C@H](C)NC(=O)[C@@H]2C[C@@H](O)CN2C(=O)[C@@H](c2cc(OCCN3C[C@@H]4[C@H](C3)[C@H]4c3[nH]c4nnc(-c5cccc(F)c5O)cc4c3C)no2)C(C)C)cc1` (racemic) [Compound 126, (2S,4R)-1-((R)-2-(3-(2-((1R,5S,6R)-6-(3-(3-fluoro-2-hydroxyphenyl)-5-methyl-7H-pyrrolo[2,3-c]pyridazin-6-yl)-3-azabicyclo[3.1.0]hexan-3-yl)ethoxy)isoxazol-5-yl)-3-methylbutanoyl)-4-hydroxy-N-((S)-1-(4-(4-methylthiazol-5-yl)phenyl)ethyl)pyrrolidine-2-carboxamide], in assay [1], the “BRM HiBit Degradation Maximum (%)” value was “A (“A” indicates maximum degradation ≥ 75%)” and the DC50 was over 0.01 µM. Also, in assay [2], the Dmax is over 50% and the DC50 was over 0.1 µM.
As for `Cc1ncsc1-c1ccc([C@H](C)NC(=O)[C@@H]2C[C@@H](O)CN2C(=O)[C@@H](c2cc(N(C)CCN3CCc4[nH]c5nnc(-c6ccccc6O)cc5c4C3)no2)C(C)C)cc1` (racemic) [Compound 182, (2S,4R)-4-hydroxy-1-((R)-2-(3-((2-(3-(2-hydroxyphenyl)-5,7,8,9-tetrahydro-6H-pyrido[3′,4′:4,5]pyrrolo[2,3-c]pyridazin-6-yl)ethyl)(methyl)amino)isoxazol-5-yl)-3-methylbutanoyl)-N-((S)-1-(4-(4-methylthiazol-5-yl)phenyl)ethyl)pyrrolidine-2-carboxamide], the “BRM HiBit Degradation Maximum (%)” value in assay [1] is on record as “C (“C” indicates maximum degradation < 50%)”. For the same compound, in assay [2], the Dmax is under 50%.
`Cc1ncsc1-c1ccc([C@H](C)NC(=O)[C@@H]2C[C@@H](O)CN2C(=O)[C@@H](c2cc(OCCNC(=O)[C@H]3CCc4[nH]c5nnc(-c6ccccc6O)cc5c4C3)no2)C(C)C)cc1` (single isomer, unassigned) [Compound 167]: in assay [1], the “BRM HiBit Degradation Maximum (%)” value is reported as “A (“A” indicates maximum degradation ≥ 75%)” and the DC50 is over 0.1 µM. Also, in assay [2], the Dmax was over 50% and the DC50 was over 0.1 µM.

Values taken from patent US20240024488A1, “COMPOUNDS AND USES THEREOF” (Foghorn Therapeutics Inc., priority 2020, published 2024).
